The results in this text go back to patent publication US20140158116A1, “INHIBITING TRPA1 FOR THE TREATMENT OF ASTHMA” (Cubist Pharmaceuticals, Inc., priority 2012, published 2014).

SMILES strings stand for the structures. Entries after “also recorded” stand apart in the source; their conditions may differ. Read-outs that look alike come from different tables or passages of the source.

For data set [1], the target named is T1, hTRPA1 (Homo sapiens, UniProt O75762). Put plainly: Whole-cell patch clamp block of inward current through hTRPA1. It counts as cell-based. How it is done: (§1) Data for TRPA1 inhibition and the selectivity of TRPA1 inhibition was obtained by this method for the compound of Formula (Ia) and included in Table 1 and Table 2. All currents were recorded in whole-cell configuration using EPC-9 and EPC-10 amplifiers and Patchmaster software (HEKA). […] The standard pipette solution consisted of 140 mM CsAsp, 10 mM EGTA, 10 mM HEPES, 2.27 mM MgCl2, 1.91 mM CaCl2, 4 mM MgATP, and 0.1-0.3 mM Na2GTP, with pH adjusted to 7.2 with CsOH. In addition, a solution containing 145 mM CsCl, 10 mM HEPES, 10 mM EGTA and 1 mM MgCl2 (pH 7.2 adjusted with CsOH) can be used. The standard bath solution contained 150 mM NaCl, 10 mM HEPES, 10 mM glucose, 4.5 mM KCl, 1 mM EGTA, 3 mM MgCl2, with pH adjusted to 7.4 with NaOH. In some instances, 2 mM CaCl2 was added in place of EGTA and the concentration of MgCl2 was reduced to 1 mM.
T1 sequence (O75762 whole entry): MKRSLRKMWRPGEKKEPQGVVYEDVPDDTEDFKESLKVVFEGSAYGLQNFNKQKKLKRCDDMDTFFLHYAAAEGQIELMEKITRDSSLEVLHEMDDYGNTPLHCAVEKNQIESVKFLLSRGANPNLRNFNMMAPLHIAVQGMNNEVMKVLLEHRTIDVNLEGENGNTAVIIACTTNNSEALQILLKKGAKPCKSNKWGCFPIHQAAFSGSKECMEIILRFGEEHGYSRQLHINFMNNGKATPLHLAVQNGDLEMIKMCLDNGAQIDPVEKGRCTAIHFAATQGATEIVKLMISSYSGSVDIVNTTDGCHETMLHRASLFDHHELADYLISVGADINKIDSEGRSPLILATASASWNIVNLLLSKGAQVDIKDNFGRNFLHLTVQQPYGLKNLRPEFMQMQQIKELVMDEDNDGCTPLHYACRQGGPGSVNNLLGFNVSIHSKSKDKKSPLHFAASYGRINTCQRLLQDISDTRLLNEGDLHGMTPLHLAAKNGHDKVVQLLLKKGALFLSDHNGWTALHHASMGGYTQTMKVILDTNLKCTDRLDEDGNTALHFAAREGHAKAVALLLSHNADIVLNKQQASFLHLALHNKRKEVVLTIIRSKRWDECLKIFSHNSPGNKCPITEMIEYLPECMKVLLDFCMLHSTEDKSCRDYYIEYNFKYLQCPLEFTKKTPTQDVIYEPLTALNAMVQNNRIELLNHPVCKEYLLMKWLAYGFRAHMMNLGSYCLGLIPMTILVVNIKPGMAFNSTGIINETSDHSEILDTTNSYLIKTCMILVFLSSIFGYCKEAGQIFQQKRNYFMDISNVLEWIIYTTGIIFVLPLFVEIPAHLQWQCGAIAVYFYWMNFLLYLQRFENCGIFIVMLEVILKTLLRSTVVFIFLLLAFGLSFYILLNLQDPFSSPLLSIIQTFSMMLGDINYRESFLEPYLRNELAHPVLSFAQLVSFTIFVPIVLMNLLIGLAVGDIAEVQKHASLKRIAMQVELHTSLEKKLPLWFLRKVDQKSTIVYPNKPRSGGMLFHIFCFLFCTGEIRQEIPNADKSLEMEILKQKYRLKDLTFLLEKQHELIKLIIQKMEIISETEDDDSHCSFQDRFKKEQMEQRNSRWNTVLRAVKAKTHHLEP
(§2) Data were collected either by continuous recordings at −60 mV or by applying voltage ramps from a holding potential of 0 mV every 4 s. Continuous recordings were collected at 400 Hz and digitally filtered off-line at 10 Hz for presentation. Voltage ramps were applied from −100 mV to 100 mV over the course of 400 ms, and data were collected at 10 kHz and filtered at 2.9 kHz. Inward and outward currents were analyzed from the ramps at −80 and 80 mV, respectively. Liquid junction potential correction was not used.
(§3) Solutions were switched using a gravity-fed continuous focal perfusion system. To achieve rapid temperature changes, two temperature control and perfusion systems were employed simultaneously. For temperatures ≧22° C., a Warner Instruments bipolar temperature controller (TC-344B) and inline heater (SHM-8) were used. […] Temperatures were confirmed using a thermistor (Warner Instruments, TA-29), with temperatures at the recorded cell estimated to be within +/−2° C. of those reported.
IC50 of compounds was estimated by testing each compound at 5 micromolar and 500 nanomolar. […] IC50 for compounds between 500 nanomolar and 5 micromolar was similarly estimated. Compounds blocking 50% or more at 500 nanomolar are retested at multiple concentrations, and the % block at each is fitted by standard equations to determine IC50 accurately using a 5-6 point concentration/response experiment.
For orientation: Patch clamp records ionic current or voltage across a cell membrane.

Another data set has as its target dTRPA1 (Canis lupus familiaris, UniProt A0A8I3Q1Q7). Put plainly: Whole-cell patch clamp block of inward current through dTRPA1. The class given is cell-based, Dog. How it is done:
as §1, §2, §3
IC50 of compounds was estimated by testing each compound at 5 micromolar and 500 nanomolar. […] IC50 for compounds between 500 nanomolar and 5 micromolar was similarly estimated. […]

Data set [2] has as its target T1, hTRPA1. Kind of data set: hTrpA1 IC50 measured in 1% RSA (rat serum albumin). The class given is cell-based.
The subject of data set [3] is serum biomarkers of hepatotoxicity (ALT, AST, ALP, GGT). Put plainly: Hepatotoxicity serum biomarker study in dogs, oral dose. The class given is in vivo, dog. To be noted: dogs; 50 mg/kg PO. How it is done:
The compound of Formula (Ia) was orally dosed to […] at dose levels of 5, 15 or 50 mg/kg using 30% Sulfobutylether β-cyclodextrin as the vehicle for assessment of safety as measured via serum chemistry biomarkers of hepatotoxicity or bile duct injury FIG. 5A, showing measurements of alanine aminotranferease [ALT], aspartate aminotranferease [AST], alkaline phosphatase [ALP] and gamma-glutamyl transferase [GGT] in the dogs at each dose level (each bar represents a measurement from 1 dog in the study). […] For example, the ALT levels were elevated up to about 60-fold in male dogs and up to about 130-fold in female beagle dogs following a single PO dose of 50 mg/kg.

Data set [4] can be described thus: 7-day repeat dose i.p. screening toxicity study in rats. It counts as in vivo, rat. To be noted: female rats, 50 mg/kg/day i.p. for 7 consecutive days. The method, then:
The compound of Formula (Ia) was evaluated in a 7-day repeat dose screening toxicity study in female rats. In order to maximize systemic exposure, rats were administered compound of Formula (Ia) i.p. at 50 mg/kg/day for 7 consecutive days, to obtain the results shown in FIG. 6. Clinical chemistry parameters were evaluated on Days 3 and 8. Histopathology was performed on select organs including the liver, kidney, spleen, and lung.

dTRPA1, sequence (A0A8I3Q1Q7 1-1118): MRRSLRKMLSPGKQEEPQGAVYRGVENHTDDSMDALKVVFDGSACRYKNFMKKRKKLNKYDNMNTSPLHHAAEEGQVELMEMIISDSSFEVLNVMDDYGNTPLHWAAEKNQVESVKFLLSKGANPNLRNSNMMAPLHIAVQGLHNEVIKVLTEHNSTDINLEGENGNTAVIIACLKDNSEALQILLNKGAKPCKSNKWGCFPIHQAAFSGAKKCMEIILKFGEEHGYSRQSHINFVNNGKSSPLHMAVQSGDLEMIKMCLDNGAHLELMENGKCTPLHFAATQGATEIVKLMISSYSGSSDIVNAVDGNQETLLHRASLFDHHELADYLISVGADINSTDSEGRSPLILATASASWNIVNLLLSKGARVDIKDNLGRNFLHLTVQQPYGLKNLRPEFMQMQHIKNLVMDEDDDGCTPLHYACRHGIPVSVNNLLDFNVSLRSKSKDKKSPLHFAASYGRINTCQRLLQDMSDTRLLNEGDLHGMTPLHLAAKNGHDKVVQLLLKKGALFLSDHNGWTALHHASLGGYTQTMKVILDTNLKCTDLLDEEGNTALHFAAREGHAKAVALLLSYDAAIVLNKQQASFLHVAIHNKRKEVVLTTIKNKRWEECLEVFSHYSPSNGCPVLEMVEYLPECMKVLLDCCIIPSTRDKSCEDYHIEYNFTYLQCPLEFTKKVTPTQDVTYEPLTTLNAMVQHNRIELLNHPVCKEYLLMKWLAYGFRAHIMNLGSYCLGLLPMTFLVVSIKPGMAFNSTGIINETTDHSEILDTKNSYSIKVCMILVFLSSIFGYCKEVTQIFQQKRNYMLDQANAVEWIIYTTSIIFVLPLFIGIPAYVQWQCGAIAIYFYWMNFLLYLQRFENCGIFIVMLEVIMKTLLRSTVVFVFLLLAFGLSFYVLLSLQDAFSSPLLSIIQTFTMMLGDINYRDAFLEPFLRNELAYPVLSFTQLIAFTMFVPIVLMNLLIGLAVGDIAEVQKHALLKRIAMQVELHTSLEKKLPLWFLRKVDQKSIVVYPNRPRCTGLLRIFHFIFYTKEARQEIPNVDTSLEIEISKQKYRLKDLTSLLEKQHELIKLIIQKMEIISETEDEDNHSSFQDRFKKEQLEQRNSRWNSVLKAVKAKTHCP

Take `C[C@H]1CCCN1c1ncc(-c2cccc(NC(=O)Cn3cnc4c3c(=O)n(C)c(=O)n4C)n2)cn1` [Formula (Ia)]: the IC50 (usually the midpoint of a concentration-inhibition curve) on hTRPA1 [1] (hTRPA1, Human, current activation 10 micromolar AITC, whole cell patch, read-out: IC50 Inward current) is 0.093 ± 0.022 µM; on hTRPA1 [1] (hTRPA1, class symbol, read-out: Potency (IC50) Human), 0.05 to 0.1 µM; at dTRPA1 (class symbol, read-out: Potency (IC50) Dog), at least 0.1 µM; at dTRPA1 (dTRPA1, Dog, current activation 10 micromolar AITC, read-out: IC50 Inward current) it was 0.102 ± 0.02 µM; against hTRPA1 [2], 5.3 µM. Further, at hTRPA1 [1] (versus the eight channels of Table 2), the “selectivity for block of TRPA1 over all other tested channels” value is given as “at least 100 fold”. The “effect on serum biomarkers of hepatotoxicity” value in data set [3] is reported as “did not elevate serum biomarkers of hepatotoxicity or acute phase response”. The “clinical signs, body weight, clinical chemistry parameters” value in data set [4] is on record as “no adverse clinical signs, changes in body weight, or changes in clinical chemistry parameters were noted”. Also, the “histopathology of liver, kidney, spleen, lung” value in data set [4] (50 mg/kg/day) is recorded as “No histopathological findings in the liver, kidney, spleen, or lung were observed; also recorded: no adverse effects related to the compound of Formula (Ia) were identified”.
